{"source": "patent US20140271890A1", "about": "“CONTROLLED-RELEASE PHARMACEUTICAL COMPOSITION” (priority 2013, published 2014)", "origin": "cited, not measured here", "conditions": "mean dose between 5 and 10 mg in a conventional formulation", "data": [{"molecule": "Cc1ccc(-c2nc3ccc(C)cn3c2CC(=O)N(C)C)cc1", "note": "[Zolpidem]", "values": [{"measurement": "duration of action", "value": "up to 6 hours"}]}]}
